Values after ≈ are worked out from the molar mass of the structure shown. Square brackets hold non-standard residues; d marks the D form. Ends that are not written are not given here. Peptide text beside a SMILES is read from it. * marks the point of attachment. NH(β-GlcNAc) = CC(=O)N[C@@H]1[C@@H](O)[C@H](O)[C@@H](CO)O[C@H]1N*
Tests used:
[1] = tested on: MRPA (P. aeruginosa) CCARM 2180; type: cell-based, Pseudomonas aeruginosa; details: CCARM 2180, 18 h
Experimental: (§1) The minimum growth inhibitory concentrations of the antibacterial peptides of the present invention weremeasured, and the results are shown in Table 3 below.
(§2) Specifically, the strains were grown in CAMHB until the midlog phase, and then diluted with PBS buffer to 1× 10^6 cfu/ml to prepare the bacterial solution, and the antibacterial peptide prepared in Example 1above was diluted with CAMHB to 80 µM, 40 µM, 20 µM, 10 µM, 5 µM, 2.5 µM, 1.25 µM and 0.63 µM, and then the bacterial solution was treated with the same volume.
(§3) The results are the average value of three independent experiments.

[2] = tested on: MRSA (S. aureus) KCCM 40510; type: cell-based, Staphylococcus aureus; details: KCCM 40510, 18 h
Experimental: as §1, §2, §3

[3] = tested on: VRE (E. faecalis) ATCC 51575; type: cell-based, Enterococcus faecalis; details: ATCC 51575, 18 h
Experimental: as §1, §2, §3

[4] = tested on: MRAB (A. baumannii) ATCC BAA 1605; type: cell-based, Acinetobacter baumannii; details: ATCC BAA 1605, 18 h
Experimental: as §1, §2, §3

MIC MRPA (P. aeruginosa) CCARM 2180 [1] [µM]	MIC MRSA (S. aureus) KCCM 40510 [2] [µM]	MIC VRE (E. faecalis) ATCC 51575 [3] [µM]	MIC MRAB (A. baumannii) ATCC BAA 1605 [4] [µM]	Molecule
2.5 (≈ 3.42 µg/mL)	0.63 (≈ 0.863 µg/mL)	0.63 (≈ 0.863 µg/mL)	0.63 (≈ 0.863 µg/mL)	CC[C@@H](C)[C@@H](NC(=O)[C@@H](Cc1c[nH]c2ccccc12)NC(=O)[C@@H](CCCNC(=N)N)NC(=O)[C@H](N)CCCNC(=N)N)C(=O)N[C@H](Cc1c[nH]c2ccccc12)C(=O)N[C@@H](C(=O)N[C@H](CC(C)C)C(=O)N[C@H](Cc1c[nH]c2ccccc12)C(=O)N[C@@H](CCCNC(=N)N)C(N)=O)C(C)C [KSH55, rrwiwvlwR] (H-[dR][dR][dW][dI][dW][dV][dL][dW]R-NH2; N-terminus assumed)
2.5 (≈ 4.03 µg/mL)	1.25 (≈ 2.01 µg/mL)	1.25 (≈ 2.01 µg/mL)	0.63 (≈ 1.02 µg/mL)	CC[C@@H](C)[C@@H](NC(=O)[C@@H](Cc1c[nH]c2ccccc12)NC(=O)[C@@H](CCCNC(=N)N)NC(=O)[C@@H](CCCNC(=N)N)NC(=O)[C@H](N)CCCNC(=N)N)C(=O)N[C@H](Cc1c[nH]c2ccccc12)C(=O)N[C@@H](C(=O)N[C@H](CC(C)C)C(=O)N[C@H](Cc1c[nH]c2ccccc12)C(=O)N[C@H](CCCCN)C(=O)N[C@H](CC(N)=O)C(N)=O)C(C)C [KSH68, rrrwiwvlwkn] (H-[dR][dR][dR][dW][dI][dW][dV][dL][dW][dK][dN]-NH2; N-terminus assumed)
2.5 (≈ 3.42 µg/mL)	1.25 (≈ 1.71 µg/mL)	1.25 (≈ 1.71 µg/mL)	2.5 (≈ 3.42 µg/mL)	CC[C@@H](C)[C@@H](NC(=O)[C@@H](Cc1c[nH]c2ccccc12)NC(=O)[C@@H](CCCNC(=N)N)NC(=O)[C@@H](CCCNC(=N)N)NC(=O)[C@H](N)CCCNC(=N)N)C(=O)N[C@H](Cc1c[nH]c2ccccc12)C(=O)N[C@@H](C(=O)N[C@H](CC(C)C)C(=O)N[C@H](Cc1c[nH]c2ccccc12)C(N)=O)C(C)C [KSH73, rrrwiwvlw] (H-[dR][dR][dR][dW][dI][dW][dV][dL][dW]-NH2; N-terminus assumed)
2.5 (≈ 3.6 µg/mL)	1.25 (≈ 1.8 µg/mL)	1.25 (≈ 1.8 µg/mL)	10 (≈ 14.4 µg/mL)	CC(C)[C@@H](NC(=O)[C@@H](Cc1c[nH]c2ccccc12)NC(=O)[C@H](NC(=O)[C@H](NC(=O)[C@@H](Cc1c[nH]c2ccccc12)NC(=O)[C@@H](CCCNC(=N)N)NC(=O)[C@@H](CCCNC(=N)N)NC(=O)[C@H](N)CCCNC(=N)N)C(C)C)C(C)C)C(=O)N[C@@H](C(=O)N[C@H](Cc1c[nH]c2ccccc12)C(N)=O)C(C)C [KSH84, rrrwvvwvvw] (H-[dR][dR][dR][dW][dV][dV][dW][dV][dV][dW]-NH2; N-terminus assumed)
5 (≈ 7.64 µg/mL)	1.25 (≈ 1.91 µg/mL)	1.25 (≈ 1.91 µg/mL)	10 (≈ 15.3 µg/mL)	CC(C)[C@@H](NC(=O)[C@@H](Cc1c[nH]c2ccccc12)NC(=O)[C@H](NC(=O)[C@H](NC(=O)[C@@H](Cc1c[nH]c2ccccc12)NC(=O)[C@@H](CCCNC(=N)N)NC(=O)[C@@H](CCCNC(=N)N)NC(=O)[C@H](N)CCCNC(=N)N)C(C)C)C(C)C)C(=O)N[C@H](Cc1c[nH]c2ccccc12)C(=O)N[C@H](Cc1c[nH]c2ccccc12)C(N)=O [KSH83, rrrwvvwvww] (H-[dR][dR][dR][dW][dV][dV][dW][dV][dW][dW]-NH2; N-terminus assumed)
2.5 (≈ 3.46 µg/mL)	0.63 (≈ 0.872 µg/mL)	0.63 (≈ 0.872 µg/mL)	1.25 (≈ 1.73 µg/mL)	CC[C@@H](C)[C@@H](NC(=O)[C@@H](Cc1c[nH]c2ccccc12)NC(=O)[C@H](NC(=O)[C@@H](Cc1c[nH]c2ccccc12)NC(=O)[C@@H](CCCNC(=N)N)NC(=O)[C@@H](CCCNC(=N)N)NC(=O)[C@H](N)CCCNC(=N)N)[C@H](C)CC)C(=O)N[C@H](CC(C)C)C(=O)N[C@H](Cc1c[nH]c2ccccc12)C(N)=O [KSH59, rrrwiwilw] (H-[dR][dR][dR][dW][dI][dW][dI][dL][dW]-NH2; N-terminus assumed)
20	5	5	1.25	WLVYVWLRKKR-NH2 [LSH2]
10 (≈ 13.7 µg/mL)	10 (≈ 13.7 µg/mL)	10 (≈ 13.7 µg/mL)	5 (≈ 6.86 µg/mL)	CC(C)[C@@H](NC(=O)[C@@H](Cc1c[nH]cn1)NC(=O)[C@@H](CCCNC(=N)N)NC(=O)[C@@H](CCCNC(=N)N)NC(=O)[C@H](N)CCCNC(=N)N)C(=O)N[C@H](Cc1c[nH]cn1)C(=O)N[C@@H](C(=O)N[C@@H](C(=O)N[C@H](Cc1c[nH]c2ccccc12)C(=O)N[C@H](CCCCN)C(N)=O)C(C)C)C(C)C [KSH58, rrrhvhvvwk] (H-[dR][dR][dR][dH][dV][dH][dV][dV][dW][dK]-NH2; N-terminus assumed)
10 (≈ 18.2 µg/mL)	2.5 (≈ 4.54 µg/mL)	2.5 (≈ 4.54 µg/mL)	1.25 (≈ 2.27 µg/mL)	CC[C@@H](C)[C@@H](NC(=O)[C@@H](Cc1c[nH]c2ccccc12)NC(=O)[C@@H](CCCNC(=N)N)NC(=O)[C@@H](CCCNC(=N)N)NC(=O)[C@@H](CCCNC(=N)N)NC(=O)[C@@H](N)CC(=O)N[C@@H]1O[C@H](CO)[C@@H](O)[C@H](O)[C@H]1NC(C)=O)C(=O)N[C@H](Cc1c[nH]c2ccccc12)C(=O)N[C@@H](C(=O)N[C@H](CC(C)C)C(=O)N[C@H](Cc1c[nH]c2ccccc12)C(=O)N[C@H](CCCCN)C(N)=O)C(C)C [KSH47, Nrrrwiwvlwk] (H-D(NH(β-GlcNAc))[dR][dR][dR][dW][dI][dW][dV][dL][dW][dK]-NH2; N-terminus assumed)
5 (≈ 9.07 µg/mL)	5 (≈ 9.07 µg/mL)	5 (≈ 9.07 µg/mL)	1.25 (≈ 2.27 µg/mL)	CC[C@@H](C)[C@@H](NC(=O)[C@@H](Cc1c[nH]c2ccccc12)NC(=O)[C@@H](CCCCN)NC(=O)[C@@H](CCCNC(=N)N)NC(=O)[C@H](N)CCCNC(=N)N)C(=O)N[C@H](Cc1c[nH]c2ccccc12)C(=O)N[C@H](Cc1c[nH]c2ccccc12)C(=O)N[C@H](CC(C)C)C(=O)N[C@H](Cc1c[nH]c2ccccc12)C(=O)N[C@H](CCCCN)C(=O)N[C@H](CCCCN)C(=O)N[C@H](CCCCN)C(N)=O [KSH52, rrkwiwwlwkkk] (H-[dR][dR][dK][dW][dI][dW][dW][dL][dW][dK][dK][dK]-NH2; N-terminus assumed)
10 (≈ 13.8 µg/mL)	2.5 (≈ 3.46 µg/mL)	5 (≈ 6.92 µg/mL)	2.5 (≈ 3.46 µg/mL)	CC(C)[C@@H](NC(=O)[C@H](N)Cc1c[nH]c2ccccc12)C(=O)N[C@@H](C(=O)N[C@H](Cc1c[nH]c2ccccc12)C(=O)N[C@H](C)C(=O)N[C@H](C)C(=O)N[C@H](Cc1c[nH]c2ccccc12)C(=O)N[C@H](CCCNC(=N)N)C(=O)N[C@H](CCCNC(=N)N)C(=O)N[C@H](CCCNC(=N)N)C(N)=O)C(C)C [KSH72, wvvwaawrrr] (H-[dW][dV][dV][dW][dA][dA][dW][dR][dR][dR]-NH2; N-terminus assumed)
>10	>10	>10	2.5 (≈ 3.21 µg/mL)	CC[C@@H](C)[C@@H](NC(=O)[C@@H](Cc1c[nH]c2ccccc12)NC(=O)[C@@H](C)NC(=O)[C@@H](C)NC(=O)[C@H](N)Cc1c[nH]c2ccccc12)C(=O)NCC(=O)N[C@H](CC(C)C)C(=O)N[C@H](CCCNC(=N)N)C(=O)N[C@H](CCCNC(=N)N)C(=O)N[C@H](CCCNC(=N)N)C(N)=O [KSH69, waawiglrrr] (H-[dW][dA][dA][dW][dI]G[dL][dR][dR][dR]-NH2; N-terminus assumed)
5 (≈ 7.78 µg/mL)	1.25 (≈ 1.95 µg/mL)	1.25 (≈ 1.95 µg/mL)	1.25 (≈ 1.95 µg/mL)	CC[C@@H](C)[C@@H](NC(=O)[C@@H](Cc1c[nH]c2ccccc12)NC(=O)[C@@H](CCCCN)NC(=O)[C@@H](CCCNC(=N)N)NC(=O)[C@H](N)CCCNC(=N)N)C(=O)N[C@H](Cc1c[nH]c2ccccc12)C(=O)N[C@H](Cc1c[nH]c2ccccc12)C(=O)N[C@H](CC(C)C)C(=O)N[C@H](Cc1c[nH]c2ccccc12)C(=O)N[C@H](CCCCN)C(N)=O [KSH51, rrkwiwwlwk] (H-[dR][dR][dK][dW][dI][dW][dW][dL][dW][dK]-NH2; N-terminus assumed)
10 (≈ 14.4 µg/mL)	1.25 (≈ 1.8 µg/mL)	1.25 (≈ 1.8 µg/mL)	10 (≈ 14.4 µg/mL)	CC(C)[C@@H](NC(=O)[C@@H](Cc1c[nH]c2ccccc12)NC(=O)[C@@H](CCCNC(=N)N)NC(=O)[C@@H](CCCNC(=N)N)NC(=O)[C@H](N)CCCNC(=N)N)C(=O)N[C@@H](C(=O)N[C@@H](C(=O)N[C@@H](C(=O)N[C@H](Cc1c[nH]c2ccccc12)C(=O)N[C@H](Cc1c[nH]c2ccccc12)C(N)=O)C(C)C)C(C)C)C(C)C [KSH85, rrrwvvvvww] (H-[dR][dR][dR][dW][dV][dV][dV][dV][dW][dW]-NH2; N-terminus assumed)
20	2.5	2.5	1.25	WLLWVLWRKKR-NH2 [LSH3]

From patent publication US20230287044A1, “NOVEL ANTIBACTERIAL PEPTIDE AND USE THEREOF” (priority 2020, published 2023)
